In patent US20130252816A1, “HERBICIDAL COMPOSITION AND USE THEREOF” (Syngenta Crop Protection LLC, priority 2010, published 2013):

Columns and labels:
Assay type in all cases: in vivo
Poa annua [1] = experiment: Example 1: adjuvants alone, visual % damage, pots in glasshouse
Method: (§1) The effect of different adjuvants (see Table 1 below) on the growth of broadleaf weed and grass species was investigated and compared to untreated (water only) control weeds.
(§2) Plates, each with 48 pots measuring 2.7 cm diameter and 5 cm deep, were filled with TKS1 growing media (Floragard, Germany). Seeds of Taraxacum officinale, Stellaria media or Poa annua were sown on the surface (10 to 20 per pot). Plants were grown in glasshouse at a temperature of 18 to 20° C. and at 60% relative humidity.
(§3) Plants were treated 15 (Stellaria, Poa) and 34 (Taraxacum) days after sowing with 60 μl of a 1.25, 2.5, 5 and 10% (w/v) solution of adjuvant using a hand airbrush.
(§4) Visual assessment of the percentage damage to the plant was carried out 1 day and 6 days from application.
(§5) Damage was assessed as wilting, desiccation or any other kind of visual injury in comparison to the untreated control (water only).

Stellaria media [2] = experiment: as above
Method: as §1, §2, §3, §4, §5

Taraxacum officinale = experiment: as above
Method: as §1, §2, §3, §4, §5

Veronica persica = experiment: Example 2: alcohol ethoxylate adjuvants without glyphosate, visual % damage, tracksprayer 300 l/ha
From the text: (§6) The effect of different types of alcohol ethoxylate (branched—Genapol X-series, and unbranched—Genapol O-series, differing degrees of ethoxylation, see Table 3 below for more details), on unwanted vegetation (broadleaf weed and grass species), in the absence of glyphosate, was investigated and compared to untreated (water only) control weeds.
(§7) Troughs (measuring 16 cm by 13 cm by 5 cm) were filled with local field soil. Seeds of Veronica persica, Stellaria media, Trifolium repens and Poa annua were sown 24 days before application of test samples. Plants were grown in the glasshouse at 18 to 20° C. and 60% relative humidity. Application of alcohol ethoxylate test samples was carried out using a tracksprayer, spraying at a rate of 300 l/ha. Plants were kept in glasshouse and visual assessment of the estimated percentage damage to the plant was carried out 1, 7, and 14 days from application.
as §5

Poa annua [3] = experiment: as above
From the text: as §6, §7, §5

Stellaria media [4] = experiment: as above
From the text: as §6, §7, §5

Trifolium repens = experiment: as above
From the text: as §6, §7, §5

[5] = system: broadleaf weed and grass species; experiment: Example 2: overall statement on alcohol ethoxylates without glyphosate; conditions: absence of glyphosate
From the text: as §6, §7, §5

Oleyl alcohol polyglycol ether with 10 moles of ethoxylation [GenapolO100]
avg % damage 1 DAA Poa annua (Poa annua [1]; adjuvant 1.25% w/v): 0% | avg % damage 6 DAA Poa annua (Poa annua [1]; adjuvant 1.25% w/v): 5% | avg % damage 1 DAA Poa annua (Poa annua [1]; adjuvant 2.5% w/v): 0% | avg % damage 6 DAA Poa annua (Poa annua [1]; adjuvant 2.5% w/v): 10% | avg % damage 1 DAA Poa annua (Poa annua [1]; adjuvant 5% w/v): 0% | avg % damage 6 DAA Poa annua (Poa annua [1]; adjuvant 5% w/v): 10% | avg % damage 1 DAA Poa annua (Poa annua [1]; adjuvant 10% w/v): 0% | avg % damage 6 DAA Poa annua (Poa annua [1]; adjuvant 10% w/v): 10% | avg % damage 1 DAA Stellaria media (Stellaria media [2]; adjuvant 1.25% w/v): 0% | avg % damage 6 DAA Stellaria media (Stellaria media [2]; adjuvant 1.25% w/v): 5% | avg % damage 1 DAA Stellaria media (Stellaria media [2]; adjuvant 2.5% w/v): 5% | avg % damage 6 DAA Stellaria media (Stellaria media [2]; adjuvant 2.5% w/v): 10% | avg % damage 1 DAA Stellaria media (Stellaria media [2]; adjuvant 5% w/v): 15% | avg % damage 6 DAA Stellaria media (Stellaria media [2]; adjuvant 5% w/v): 30% | avg % damage 1 DAA Stellaria media (Stellaria media [2]; adjuvant 10% w/v): 50% | avg % damage 6 DAA Stellaria media (Stellaria media [2]; adjuvant 10% w/v): 55% | avg % damage 1 DAA Taraxacum officinale (Taraxacum officinale; adjuvant 1.25% w/v): 0% | avg % damage 6 DAA Taraxacum officinale (Taraxacum officinale; adjuvant 1.25% w/v): 0% | avg % damage 1 DAA Taraxacum officinale (Taraxacum officinale; adjuvant 2.5% w/v): 5% | avg % damage 6 DAA Taraxacum officinale (Taraxacum officinale; adjuvant 2.5% w/v): 0% | avg % damage 1 DAA Taraxacum officinale (Taraxacum officinale; adjuvant 5% w/v): 5% | avg % damage 6 DAA Taraxacum officinale (Taraxacum officinale; adjuvant 5% w/v): 0% | avg % damage 1 DAA Taraxacum officinale (Taraxacum officinale; adjuvant 10% w/v): 5% | avg % damage 6 DAA Taraxacum officinale (Taraxacum officinale; adjuvant 10% w/v): 0%

Tri-sec-butylphenol polyglycol ether with 6 Moles of ethoxylation [SAPOGENAT T 060]
avg % damage 1 DAA Poa annua (Poa annua [1]; adjuvant 1.25% w/v): 0% | avg % damage 6 DAA Poa annua (Poa annua [1]; adjuvant 1.25% w/v): 5% | avg % damage 1 DAA Poa annua (Poa annua [1]; adjuvant 2.5% w/v): 0% | avg % damage 6 DAA Poa annua (Poa annua [1]; adjuvant 2.5% w/v): 5% | avg % damage 1 DAA Poa annua (Poa annua [1]; adjuvant 5% w/v): 0% | avg % damage 6 DAA Poa annua (Poa annua [1]; adjuvant 5% w/v): 25% | avg % damage 1 DAA Poa annua (Poa annua [1]; adjuvant 10% w/v): 0% | avg % damage 6 DAA Poa annua (Poa annua [1]; adjuvant 10% w/v): 35% | avg % damage 1 DAA Stellaria media (Stellaria media [2]; adjuvant 1.25% w/v): 0% | avg % damage 6 DAA Stellaria media (Stellaria media [2]; adjuvant 1.25% w/v): 0% | avg % damage 1 DAA Stellaria media (Stellaria media [2]; adjuvant 2.5% w/v): 0% | avg % damage 6 DAA Stellaria media (Stellaria media [2]; adjuvant 2.5% w/v): 0% | avg % damage 1 DAA Stellaria media (Stellaria media [2]; adjuvant 5% w/v): 0% | avg % damage 6 DAA Stellaria media (Stellaria media [2]; adjuvant 5% w/v): 20% | avg % damage 1 DAA Stellaria media (Stellaria media [2]; adjuvant 10% w/v): 0% | avg % damage 6 DAA Stellaria media (Stellaria media [2]; adjuvant 10% w/v): 20% | avg % damage 1 DAA Taraxacum officinale (Taraxacum officinale; adjuvant 1.25% w/v): 0% | avg % damage 6 DAA Taraxacum officinale (Taraxacum officinale; adjuvant 1.25% w/v): 0% | avg % damage 1 DAA Taraxacum officinale (Taraxacum officinale; adjuvant 2.5% w/v): 0% | avg % damage 6 DAA Taraxacum officinale (Taraxacum officinale; adjuvant 2.5% w/v): 0% | avg % damage 1 DAA Taraxacum officinale (Taraxacum officinale; adjuvant 5% w/v): 0% | avg % damage 6 DAA Taraxacum officinale (Taraxacum officinale; adjuvant 5% w/v): 0% | avg % damage 1 DAA Taraxacum officinale (Taraxacum officinale; adjuvant 10% w/v): 0% | avg % damage 6 DAA Taraxacum officinale (Taraxacum officinale; adjuvant 10% w/v): 0%

Iso-tridecyl alcohol polyglycol ether with 8 moles of ethoxylation [GenapolX080]
mean % damage 1 daa Veronica persica (Veronica persica; adjuvant 1% w/v): 5% | mean % damage 7 daa Veronica persica (Veronica persica; adjuvant 1% w/v): 5% | mean % damage 14 daa Veronica persica (Veronica persica; adjuvant 1% w/v): 5% | mean % damage 1 daa Veronica persica (Veronica persica; adjuvant 1.5% w/v): 10% | mean % damage 7 daa Veronica persica (Veronica persica; adjuvant 1.5% w/v): 20% | mean % damage 14 daa Veronica persica (Veronica persica; adjuvant 1.5% w/v): 20% | mean % damage 1 daa Veronica persica (Veronica persica; adjuvant 2% w/v): 20% | mean % damage 7 daa Veronica persica (Veronica persica; adjuvant 2% w/v): 10% | mean % damage 14 daa Veronica persica (Veronica persica; adjuvant 2% w/v): 20% | mean % damage 1 daa Veronica persica (Veronica persica; adjuvant 2.5% w/v): 30% | mean % damage 7 daa Veronica persica (Veronica persica; adjuvant 2.5% w/v): 40% | mean % damage 14 daa Veronica persica (Veronica persica; adjuvant 2.5% w/v): 40% | mean % damage 1 daa Poa annua (Poa annua [3]; adjuvant 1% w/v): 0% | mean % damage 7 daa Poa annua (Poa annua [3]; adjuvant 1% w/v): 10% | mean % damage 14 daa Poa annua (Poa annua [3]; adjuvant 1% w/v): 0% | mean % damage 1 daa Poa annua (Poa annua [3]; adjuvant 1.5% w/v): 10% | mean % damage 7 daa Poa annua (Poa annua [3]; adjuvant 1.5% w/v): 30% | mean % damage 14 daa Poa annua (Poa annua [3]; adjuvant 1.5% w/v): 5% | mean % damage 1 daa Poa annua (Poa annua [3]; adjuvant 2% w/v): 40% | mean % damage 7 daa Poa annua (Poa annua [3]; adjuvant 2% w/v): 50% | mean % damage 14 daa Poa annua (Poa annua [3]; adjuvant 2% w/v): 10% | mean % damage 1 daa Poa annua (Poa annua [3]; adjuvant 2.5% w/v): 40% | mean % damage 7 daa Poa annua (Poa annua [3]; adjuvant 2.5% w/v): 50% | mean % damage 14 daa Poa annua (Poa annua [3]; adjuvant 2.5% w/v): 20% | mean % damage 1 daa Stellaria media (Stellaria media [4]; adjuvant 1% w/v): 10% | mean % damage 7 daa Stellaria media (Stellaria media [4]; adjuvant 1% w/v): 10% | mean % damage 14 daa Stellaria media (Stellaria media [4]; adjuvant 1% w/v): 5% | mean % damage 1 daa Stellaria media (Stellaria media [4]; adjuvant 1.5% w/v): 10% | mean % damage 7 daa Stellaria media (Stellaria media [4]; adjuvant 1.5% w/v): 10% | mean % damage 14 daa Stellaria media (Stellaria media [4]; adjuvant 1.5% w/v): 0% | mean % damage 1 daa Stellaria media (Stellaria media [4]; adjuvant 2% w/v): 20% | mean % damage 7 daa Stellaria media (Stellaria media [4]; adjuvant 2% w/v): 20% | mean % damage 14 daa Stellaria media (Stellaria media [4]; adjuvant 2% w/v): 10% | mean % damage 1 daa Stellaria media (Stellaria media [4]; adjuvant 2.5% w/v): 30% | mean % damage 7 daa Stellaria media (Stellaria media [4]; adjuvant 2.5% w/v): 30% | mean % damage 14 daa Stellaria media (Stellaria media [4]; adjuvant 2.5% w/v): 10% | mean % damage 1 daa Trifolium repens (Trifolium repens; adjuvant 1% w/v): 20% | mean % damage 7 daa Trifolium repens (Trifolium repens; adjuvant 1% w/v): 20% | mean % damage 14 daa Trifolium repens (Trifolium repens; adjuvant 1% w/v): 15% | mean % damage 1 daa Trifolium repens (Trifolium repens; adjuvant 1.5% w/v): 50% | mean % damage 7 daa Trifolium repens (Trifolium repens; adjuvant 1.5% w/v): 60% | mean % damage 14 daa Trifolium repens (Trifolium repens; adjuvant 1.5% w/v): 10% | mean % damage 1 daa Trifolium repens (Trifolium repens; adjuvant 2% w/v): 50% | mean % damage 7 daa Trifolium repens (Trifolium repens; adjuvant 2% w/v): 60% | mean % damage 14 daa Trifolium repens (Trifolium repens; adjuvant 2% w/v): 15% | mean % damage 1 daa Trifolium repens (Trifolium repens; adjuvant 2.5% w/v): 50% | mean % damage 7 daa Trifolium repens (Trifolium repens; adjuvant 2.5% w/v): 60% | mean % damage 14 daa Trifolium repens (Trifolium repens; adjuvant 2.5% w/v): 10% | course of damage over time (recovery) [5]: the level of damage decreases from day 14 onwards
